From patent publication US10669242B2 (priority 2016, dated 2020)

How the values were obtained:
[1] = molecular target: T1, recombinant glucosyltransferase domain of C. difficile Toxin B/TcdB (Clostridioides difficile, UniProt P18177); experiment: biochemical
T1 construct: 6-His (C); purchased R&D Systems 6246-GT

[2] = molecular target: T2, C. difficile full-length toxin TcdA (Clostridioides difficile, UniProt P16154); experiment: cell-based
T2 construct: C. difficile full-length toxins (TcdA or TcdB); purchased Enzo Life Sciences BML-G140-0050

[3] = molecular target: T3, C. difficile full-length toxin TcdB (Clostridioides difficile, UniProt P18177); experiment: cell-based
T3 construct: C. difficile full-length toxins (TcdA or TcdB); purchased EMD Millipore 616377

[4] = system: C. difficile toxin (TcdA and TcdB, ~1:1); experiment: Murine C. difficile toxin model (intrarectal toxin); format: in vivo, C57BL/6 mice; details: murine C. difficile toxin model, PO, 50 mg/kg body weight
Description: In the following studies, we established a murine C. difficile toxin model with modifications from a published murine model (Hirota, Iablokov et al. 2012). Details of the murine C. difficile toxin model are described in the “Experimental Protocols” (below). C. difficile toxins were isolated from a culture of the C. difficile strain VPI 10463. C. difficile toxins consisted of TcdA and TcdB (˜1:1 ratio of TcdA:TcdB). Respective TcdA and TcdB concentrations were determined by enzyme-linked immunosorbant assay (ELISA). In our mouse model, C. difficile toxins were administered intrarectally to evaluate their pathological effects.
We administered C. difficile toxin (12.5 μg/mouse) via intrarectal instillation into female C57BL/6 mice. Four (4) animals were used in each group. Four (4) hours after the toxin administration, the mice were euthanized. The colons were excised from the animals and washed with phosphate buffered saline (PBS). The colon lengths were measured. Excised colon tissues were stored at −70° C. for chemical analysis of interleukin-1β(IL-1β) and myeloperosidase (MPO) in tissues, which are the hallmarks of colon inflammation. Excised colon tissues were also stored at room temperature in 10% neutral buffered formalin for histopathological analysis.
Using the murine C. difficile toxin model (Example 61), we evaluated the efficacy of Example 6a in reducing the C. difficile toxin activity. In this study, the isolated toxin (12.5 μg) was diluted in 50 μl of PBS and mixed with a 50 μl suspension of Example 6a (10 mg/mL) in 1% carboxymethyl cellulose and 0.5% Tween 80 to achieve a fixed dose of […] of Example 6a (0.5 mg in mice weighing ˜20 g) and C. difficile toxin (12.5 μg). Three (3) animals were used in each group.
In this study, we evaluated the efficacy of Example 6a via different routes of administration (i.e., oral (PO) and intraperitoneal (IP) administrations) in the same murine C. difficile toxin model (Example 61). In both PO and IP dosages, Example 6a was prepared as 5 mg/mL solutions in 20% PEG-400, 0.4% carboxymethyl cellulose and 0.2% Tween 80. Example 6a was administered at a final dose of 50 mg/kg body weight. Three (3) mice were used in each group (i.e., vehicle (control), PO and IP).
Using the murine C. difficile toxin model (Example 63), we further tested the efficacy of four (4) additional compounds (i.e., Example 6a, Example 5ae, Example 4cl, and Example 5al) via PO administration. All of the compounds were dosed orally at 50 mg/kg body weight. In three separate studies a total of three (3) to fourteen (14) mice were used in each group.
We evaluated the efficacy of additional compounds in reducing C. difficile toxicity. Using the PO administration (Example 63), we further tested 30 compounds (Table 34). All of the compounds were dosed orally at 50 mg/kg body weight. Three (3) to fourteen (14) animals were used for each compound. % inhibition was determined by the following formula: […]
An overnight culture of C. difficile strain VPI 10463 (American Type Culture Collection) was grown at 37° C. in Brain-Heart Infusion (BHI) broth using the GasPak EZ Anaerobe Pouch System (Becton Dickinson). 2 mL of the culture was added to 28 mL of phosphate buffered saline (PBS) in a gamma-irradiated, 10,000 molecular weight cut-off, 30-70 ml Slide-A-Lyzer G2 dialysis cassette (Pierce). This cassette was submerged in 1 L of BHI broth in a 2 L beaker and incubated under anaerobic conditions for 5 days at 37° C. The culture was then transferred to a 50 mL conical tube and the cassette was washed with 10 mL of PBS. The combined culture and wash were centrifuged at 2,000 g for 20 minutes to pellet the bacteria and the supernatant was filtered through a 0.2 μm syringe filter. The filtrate was then applied to a 20 mL 150 K molecular weight cut-off concentration column (Pierce) and centrifuged at 2,000 g for 15 minutes. Concentrated supernatant was stored at 4° C. […]

T3 sequence (P18177 2-2366 limits assumed): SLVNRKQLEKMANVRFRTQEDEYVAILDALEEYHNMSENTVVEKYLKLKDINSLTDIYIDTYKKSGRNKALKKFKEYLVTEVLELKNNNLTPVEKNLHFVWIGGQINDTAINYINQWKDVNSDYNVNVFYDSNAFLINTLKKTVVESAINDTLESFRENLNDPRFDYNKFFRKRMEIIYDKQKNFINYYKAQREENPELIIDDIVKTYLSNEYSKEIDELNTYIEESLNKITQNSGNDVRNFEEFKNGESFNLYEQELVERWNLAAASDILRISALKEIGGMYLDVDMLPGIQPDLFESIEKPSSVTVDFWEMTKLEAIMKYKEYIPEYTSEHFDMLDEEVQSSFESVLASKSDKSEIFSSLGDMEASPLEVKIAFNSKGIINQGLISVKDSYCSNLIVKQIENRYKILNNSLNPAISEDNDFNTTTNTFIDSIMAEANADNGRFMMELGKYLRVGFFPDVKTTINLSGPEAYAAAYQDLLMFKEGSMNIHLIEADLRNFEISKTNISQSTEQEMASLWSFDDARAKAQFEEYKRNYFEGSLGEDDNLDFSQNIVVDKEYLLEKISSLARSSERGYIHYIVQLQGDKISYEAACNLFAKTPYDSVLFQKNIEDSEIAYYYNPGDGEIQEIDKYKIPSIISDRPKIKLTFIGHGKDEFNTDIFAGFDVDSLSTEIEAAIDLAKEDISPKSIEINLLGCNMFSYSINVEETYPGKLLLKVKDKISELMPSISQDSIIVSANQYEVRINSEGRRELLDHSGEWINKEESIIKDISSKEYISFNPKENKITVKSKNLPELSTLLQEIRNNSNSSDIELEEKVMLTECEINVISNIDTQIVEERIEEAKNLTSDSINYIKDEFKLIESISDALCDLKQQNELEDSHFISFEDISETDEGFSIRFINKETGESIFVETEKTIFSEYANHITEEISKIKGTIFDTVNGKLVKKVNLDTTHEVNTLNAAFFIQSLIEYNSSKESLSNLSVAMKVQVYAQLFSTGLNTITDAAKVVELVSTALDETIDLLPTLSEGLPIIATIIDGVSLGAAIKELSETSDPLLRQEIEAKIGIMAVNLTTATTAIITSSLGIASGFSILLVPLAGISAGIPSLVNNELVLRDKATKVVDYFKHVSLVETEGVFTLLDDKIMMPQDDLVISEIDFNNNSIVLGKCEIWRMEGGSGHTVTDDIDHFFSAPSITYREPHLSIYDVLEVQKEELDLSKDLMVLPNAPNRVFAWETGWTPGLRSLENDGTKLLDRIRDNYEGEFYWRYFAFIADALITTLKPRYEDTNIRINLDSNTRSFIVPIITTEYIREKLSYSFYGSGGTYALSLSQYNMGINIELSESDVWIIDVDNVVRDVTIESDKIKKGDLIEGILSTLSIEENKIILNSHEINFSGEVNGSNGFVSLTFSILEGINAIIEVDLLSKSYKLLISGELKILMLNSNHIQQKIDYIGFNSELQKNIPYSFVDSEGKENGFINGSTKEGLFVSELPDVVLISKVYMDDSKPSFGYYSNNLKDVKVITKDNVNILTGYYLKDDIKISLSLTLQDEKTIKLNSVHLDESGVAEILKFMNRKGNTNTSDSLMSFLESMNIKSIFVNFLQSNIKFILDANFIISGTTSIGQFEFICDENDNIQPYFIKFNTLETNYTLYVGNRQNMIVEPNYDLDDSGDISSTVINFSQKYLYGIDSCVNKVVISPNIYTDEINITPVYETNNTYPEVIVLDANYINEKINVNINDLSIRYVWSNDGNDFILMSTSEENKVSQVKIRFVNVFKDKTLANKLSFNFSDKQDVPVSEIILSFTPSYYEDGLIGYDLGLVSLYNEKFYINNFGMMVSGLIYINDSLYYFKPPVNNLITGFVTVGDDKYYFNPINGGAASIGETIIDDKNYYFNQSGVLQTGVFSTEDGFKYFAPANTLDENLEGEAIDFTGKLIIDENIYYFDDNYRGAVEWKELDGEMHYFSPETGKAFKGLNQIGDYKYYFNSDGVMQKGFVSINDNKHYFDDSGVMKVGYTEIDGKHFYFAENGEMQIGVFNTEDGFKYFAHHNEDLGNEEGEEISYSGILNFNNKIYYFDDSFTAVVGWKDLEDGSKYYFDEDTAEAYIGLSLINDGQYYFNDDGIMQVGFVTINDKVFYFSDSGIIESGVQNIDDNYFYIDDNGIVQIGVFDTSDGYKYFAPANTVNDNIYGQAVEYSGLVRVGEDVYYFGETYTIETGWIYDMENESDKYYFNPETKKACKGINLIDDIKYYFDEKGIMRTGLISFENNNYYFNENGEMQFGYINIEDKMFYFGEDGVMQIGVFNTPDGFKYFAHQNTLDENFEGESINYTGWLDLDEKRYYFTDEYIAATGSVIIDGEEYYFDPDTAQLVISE
T1 sequence (P18177 1-543): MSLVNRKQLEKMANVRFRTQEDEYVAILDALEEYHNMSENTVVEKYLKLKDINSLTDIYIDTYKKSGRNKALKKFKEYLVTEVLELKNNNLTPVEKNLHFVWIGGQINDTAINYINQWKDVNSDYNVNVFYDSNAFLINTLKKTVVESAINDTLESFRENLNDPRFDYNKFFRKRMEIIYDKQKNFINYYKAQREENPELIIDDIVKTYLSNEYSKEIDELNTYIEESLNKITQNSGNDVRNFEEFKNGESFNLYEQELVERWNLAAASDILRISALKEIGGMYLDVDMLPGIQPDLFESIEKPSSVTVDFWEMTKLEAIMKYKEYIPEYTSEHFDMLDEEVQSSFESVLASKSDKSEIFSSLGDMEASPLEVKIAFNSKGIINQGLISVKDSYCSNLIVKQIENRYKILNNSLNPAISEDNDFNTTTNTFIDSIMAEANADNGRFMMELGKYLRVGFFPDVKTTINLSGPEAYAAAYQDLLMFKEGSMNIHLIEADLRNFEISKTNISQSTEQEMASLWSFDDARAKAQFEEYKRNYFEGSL

| SMILES | IC50 [1] [nM] | IC50 [2] [nM] | IC50 [3] [nM] | IL-1β (% Inhibition) [4] [%] | MPO (% Inhibition) [4] [%] |
| --- | --- | --- | --- | --- | --- |
| COc1cnc(NC(=O)c2ccc(CN3C(=O)c4ccc(Cl)cc4NC(=O)[C@H]3Cc3ccccn3)cc2C)nc1 [Example 5ai, (R)-4-((8-Chloro-2,5-dioxo-3-(pyridin-2-ylmethyl)-2,3-dihydro-1H-benzo[e][1,4]diazepin-4(5H)-yl)methyl)-N-(5-methoxypyrimidin-2-yl)-2-methylbenzamide] | < 100 | 100 to 999 | < 100 | 96 | 79 |
| COc1cc(CN2C(=O)c3ccc(Cl)cc3NC(=O)[C@H]2Cc2ccccn2)ccc1C(=O)Nc1cnc(C)cn1 [Example 5aj, (R)-4-((8-Chloro-2,5-dioxo-3-(pyridin-2-ylmethyl)-2,3-dihydro-1H-benzo[e][1,4]diazepin-4(5H)-yl)methyl)-2-methoxy-N-(5-methylpyrazin-2-yl)benzamide] | < 100 | 1000 to 10000 | 100 to 999 | 76 | 17 |
| COc1cnc(NC(=O)c2ccc(CN3C(=O)c4ccc(Cl)cc4NC(=O)[C@H]3Cc3ccccn3)cc2OC)cn1 [Example 5ak, (R)-4-((8-Chloro-2,5-dioxo-3-(pyridin-2-ylmethyl)-2,3-dihydro-1H-benzo[e][1,4]diazepin-4(5H)-yl)methyl)-2-methoxy-N-(5-methoxypyrazin-2-yl)benzamide] | < 100 | 1000 to 10000 | 100 to 999 | 71 | 73 |
| COc1cc(CN2C(=O)c3ccc(Cl)cc3NC(=O)[C@H]2Cc2ccccn2)ccc1C(=O)Nc1ncc(C)cn1 [Example 5am, (R)-4-((8-Chloro-2,5-dioxo-3-(pyridin-2-ylmethyl)-2,3-dihydro-1H-benzo[e][1,4]diazepin-4(5H)-yl)methyl)-2-methoxy-N-(5-methylpyrimidin-2-yl)benzamide] | < 100 | 1000 to 10000 | 100 to 999 | 54 | 31 |
| COc1cnc(NC(=O)c2ccc(CN3C(=O)c4ccc(Cl)cc4NC(=O)[C@H]3Cc3ccccn3)cc2OC)nc1 [Example 5an, (R)-4-((8-Chloro-2,5-dioxo-3-(pyridin-2-ylmethyl)-2,3-dihydro-1H-benzo[e][1,4]diazepin-4(5H)-yl)methyl)-2-methoxy-N-(5-methoxypyrimidin-2-yl)benzamide] | < 100 | 1000 to 10000 | 100 to 999 | 87 | 63 |
| O=C(c1ccc(CN2C(=O)c3ccc(Cl)cc3NC(=O)[C@H]2Cc2ccccn2)cc1)c1ccccn1 [Example 11a, (R)-8-Chloro-4-(4-picolinoylbenzyl)-3-(pyridin-2-ylmethyl)-3,4-dihydro-1H-benzo[e][1,4]diazepine-2,5-dione] | < 100 | > 10000 | 1000 to 10000 | 22 | 0 |
| Cc1ccc(C(=O)c2ccc(CN3C(=O)c4ccc(Cl)cc4NC(=O)[C@H]3Cc3ccccn3)cc2)nc1 [Example 11b, (R)-8-Chloro-4-(4-(5-methylpicolinoyl)benzyl)-3-(pyridin-2-ylmethyl)-3,4-dihydro-1H-benzo[e][1,4]diazepine-2,5-dione] | < 100 | > 10000 | 1000 to 10000 | 52 | 100 |
| O=C(c1ccccn1)c1ccc(CN2C(=O)c3ccc(Cl)cc3NC(=O)[C@H]2Cc2ccccn2)cc1Cl [Example 11g, (R)-8-Chloro-4-(3-chloro-4-picolinoylbenzyl)-3-(pyridin-2-ylmethyl)-3,4-dihydro-1H-benzo[e][1,4]diazepine-2,5-dione] | < 100 | > 10000 | 1000 to 10000 | 15 | 28 |
| O=C(Nc1ccc(CN2C(=O)c3ccc(Cl)cc3NC(=O)[C@H]2Cc2ccccn2)cc1)c1c[nH]cn1 [Example 27j, (R)-N-(4-((8-Chloro-2,5-dioxo-3-(pyridin-2-ylmethyl)-2,3-dihydro-1H-benzo[e][1,4]diazepin-4(5H)-yl)methyl)phenyl)-1H-imidazole-4-carboxamide] | < 100 | > 10000 | 1000 to 10000 | 41 | 1 |
| Cn1cc(C(=O)c2ccc(CN3C(=O)c4ccc(Cl)cc4NC(=O)[C@H]3Cc3ccccn3)cc2)c2ncccc21 [Example 31a, (R)-8-Chloro-4-(4-(1-methyl-1H-pyrrolo[3,2-b]pyridine-3-carbonyl)benzyl)-3-(pyridin-2-ylmethyl)-3,4-dihydro-1H-benzo[e][1,4]diazepine-2,5-dione] | < 100 | 1000 to 10000 | 100 to 999 | 100 | 100 |
| Cn1cc(C(=O)[C@H]2CC[C@H](CN3C(=O)c4ccc(Cl)cc4NC(=O)[C@H]3Cc3ccccn3)CC2)c2ncccc21 [Example 33b, (R)-8-Chloro-4-(((1r,4R)-4-(1-methyl-1H-pyrrolo[3,2-b]pyridine-3-carbonyl)cyclohexyl)methyl)-3-(pyridin-2-ylmethyl)-3,4-dihydro-1H-benzo[e][1,4]diazepine-2,5-dione] | < 100 | 1000 to 10000 | 100 to 999 | 84 | 41 |
| O=C1Nc2cc(Cl)ccc2C(=O)N(Cc2ccc(N3CCc4cccnc4C3=O)cc2)[C@@H]1Cc1ccccn1 [Example 49b, (R)-8-Chloro-4-(4-(8-oxo-5,6-dihydro-1,7-naphthyridin-7(8H)-yl)benzyl)-3-(pyridin-2-ylmethyl)-3,4-dihydro-1H-benzo[e][1,4]diazepine-2,5-dione] | < 100 | > 10000 | 1000 to 10000 | 13 | 0 |
| O=C1Nc2cc(Cl)ccc2C(=O)N(Cc2ccc(N3Cc4cccnc4C3=O)cc2)[C@@H]1Cc1ccccn1 [Example 49c, (R)-8-Chloro-4-(4-(7-oxo-5H-pyrrolo[3,4-b]pyridin-6(7H)-yl)benzyl)-3-(pyridin-2-ylmethyl)-3,4-dihydro-1H-benzo[e][1,4]diazepine-2,5-dione] | < 100 | > 10000 | > 10000 | 30 | 0 |
